# Measurements published in patent US20240262783A1, “PHARMACEUTICAL SALT OF FINGOLIMOD, PREPARATION METHOD, PHARMACEUTICAL COMPOSITION AND USE THEREOF” (SHANGHAI BOCIMED PHARMACEUTICAL CO., LTD., priority 2021, published 2024).
# Where a name gives a salt, the structure may show the parent alone. Read-outs that look alike come from different tables or passages of the source.
# Experiments:
# [1] = Comparison of solubility (shaken at 37° C. for 24 h, HPLC); format: physicochemical; details: for Solubility: 24 h; for solubility at 24 h: 37 °C, thermodynamic from solid
# Method: The crystalline form 1 of Fingolimod 1-hydroxy-2-naphthoate prepared in Example 14, the crystalline form B of Fingolimod embonate prepared in Example 2, Fingolimod hydrochloride and the Fingolimod free base prepared in Example 12 were added to corresponding media described below. The mixtures were shaken at 37° C. for 24 h and filtered through 0.45 μm aqueous-phase filter membranes. The filtrates were collected for determination of solubility by high-performance liquid chromatography. The corresponding media were acetate buffer solutions at pH 3 and pH 5 and phosphate buffer solutions at pH 7 and pH 9, and the water was ultrapure water.
# [2] = Comparison of solid state stability (related substances by HPLC); format: physicochemical; details: for Solid state stability, total related substances (in words): stood in high temperature, high humidity, accelerated, illumination and long-term conditions for 10 d
# Method: Method for Detecting Related Substances by HPLC [table] The crystalline form 1 of Fingolimod 1-hydroxy-2-naphthoate prepared in Example 14, the crystalline form A of Fingolimod embonate prepared in Example 3, and Fingolimod hydrochloride were stood in a high temperature (60° C.)condition, a high humidity (25° C./90% RH) condition, an accelerated (40° C./75% RH) condition, an illumination (1.2× 10^6 Lux·hr) condition, and a long-term (25° C./60% RH) condition, and samples were taken on day 0, day 5, and day 10 for related substance detection by HPLC.
# [3] = male, SD, rat, in vivo, po, 0.1 mg/kg
# Method: Six male SD rats were divided into two groups. […] In the whole study, the animals in the intramuscular injection group were given ad libitum access to food and water, and those in the oral group were fasted overnight before administration and given access to food at 4 h post-dose.
# Collection of plasma sample: about 150 μL of blood was collected from the jugular vein (whole blood was centrifuged within 30 min to isolate plasma) and placed in a tube containing anticoagulant EDTA-K2, and after treatment, plasma was stored in a freezer at −70° C. before use.
# Pretreatment of plasma sample: to 30 μL of plasma sample, 200 μL of internal standard solution (40 ng/mL Glipizide acetonitrile solution) was added; the mixture was vortexed for 1 min and centrifuged at 5800 rpm at 4° C. for 10 min; 100 μL of supernatant was transferred to a new plate 5 μL of the solution was taken for LC-MS/MS.
# [4] = in vivo; details: male, SD, rat, po, 0.1 mg/kg
# [5] = Pharmacokinetic study in male SD rats (plasma Fingolimod by LC-MS/MS)
# [6] = Accelerated (40° C./75% RH), Day 5
# [7] = Accelerated (40° C./75% RH), Day 10
# [8] = Day 0 (baseline, all conditions)
# [9] = High humidity (25° C./90% RH), Day 5
# [10] = High humidity (25° C./90% RH), Day 10
# [11] = High temperature (60° C.), Day 5
# [12] = High temperature (60° C.), Day 10
# [13] = Illumination (1.2× 10^6 Lux·hr), Day 5
# [14] = Illumination (1.2× 10^6 Lux·hr), Day 10
# [15] = Long-term (25° C./60% RH), Day 5
# [16] = Long-term (25° C./60% RH), Day 10
# [17] = injection group, intramuscular 3 mg/kg
Compound,"Solubility ([1]; Water (ultrapure), 37° C.)","Solubility ([1]; pH 3 acetate buffer, 37° C.)","Solubility ([1]; pH 5 acetate buffer, 37° C.)","Changes in total related substances relative to day 0 [2, 6]","Changes in total related substances relative to day 0 [2, 7]","Changes in total related substances relative to day 0 [2, 8]","Changes in total related substances relative to day 0 [2, 9]","Changes in total related substances relative to day 0 [2, 10]","Changes in total related substances relative to day 0 [2, 11]","Changes in total related substances relative to day 0 [2, 12]","Changes in total related substances relative to day 0 [2, 13]","Changes in total related substances relative to day 0 [2, 14]","Changes in total related substances relative to day 0 [2, 15]","Changes in total related substances relative to day 0 [2, 16]","Solid state stability, total related substances (in words) [2]","Solubility ([1]; pH 7 phosphate buffer, 37° C.)","Solubility ([1]; pH 9 phosphate buffer, 37° C.)",also measured
"CCCCCCCCc1ccc(CCC(N)(CO)CO)cc1 [Fingolimod free base, reference compound]",about 23 μg/mL,5561.36 µg/mL,473.53 µg/mL,–,–,–,–,–,–,–,–,–,–,–,–,–,–,–
"CCCCCCCCc1ccc(CCC(N)(CO)CO)cc1 [Fingolimod hydrochloride, reference compound]",–,–,–,−0.07%,0.01%,0%,−0.07%,−0.07%,0.03%,0.02%,−0.04%,−0.03%,0.04%,−0.12%,–,–,–,"Behaviour of the salt in the media (in words) [1]: dissociated into the Fingolimod free base; solubility at 24 h ([1]; pH 3, aqueous buffer): > 33500 µg/mL; solubility at 24 h ([1]; pH 5, aqueous buffer): > 15600 µg/mL; solubility at 24 h ([1]; pH 7, aqueous buffer): < 0.15 µg/mL; solubility at 24 h ([1]; pH 9, aqueous buffer): < 0.15 µg/mL; solubility at 24 h ([1]; water): ~14000 µg/mL; Solubility [1]: >13900 µg/mL"
CCCCCCCCc1ccc(CCC(N)(CO)CO)cc1 [Fingolimod],–,–,–,–,–,–,–,–,–,–,–,–,–,–,–,–,–,Time post-dose at which plasma concentration reached the peak value [3]: 12 h; MRT [4]: 12 h
Fingolimod 1-hydroxy-2-naphthoate,5.46 µg/mL,20.07 µg/mL,9.17 µg/mL,−0.09%,−0.07%,0%,−0.04%,−0.07%,−0.05%,−0.16%,−0.05%,0.02%,−0.17%,−0.15%,remained substantially unchanged,0.54 µg/mL,0.58 µg/mL,"Solubility in water relative to the solubility of Fingolimod free base ([1]; water): one fourth to one fifth; Solubility in water relative to the solubility of Fingolimod hydrochloride ([1]; water): one thousandth to one twenty-six hundredth; Cmax relative to dose (in words) ([5]; injection group 3 mg/kg versus oral group 0.1 mg/kg): did not increase in proportion to the dose; MRT [5, 17]: 288 h; Time for plasma concentration to reach a relatively steady state [5, 17]: ≤ 1 days; Time plasma concentration was maintained above 0.3 ng/ml [5, 17]: at least 15 days; Time post-dose at which plasma concentration reached the peak value ([5]; injection group, intramuscular 3 mg/kg (Example 18 sample)): 3 h"
Fingolimod embonate [listing 1 of 2 here],–,–,–,0%,−0.11%,0%,0.12%,0.11%,−0.04%,−0.21%,0.2%,0.3%,0.08%,−0.01%,relatively stable in other conditions than the illumination condition where the impurities were slightly increased,–,–,–
Fingolimod embonate [listing 2 of 2 here],0.2 µg/mL,36.18 µg/mL,1.75 µg/mL,–,–,–,–,–,–,–,–,–,–,–,–,21.26 µg/mL,5.8 µg/mL,–
